Experimental data from the NIST ThermoML archive (doi:10.1021/acs.jced.8b00438).
Numbers after ± are expanded uncertainties.

Experiments:
[1] = 100 kPa, Liquid; for viscosity: Falling or rolling sphere viscometry; for mass density: Vibrating tube method
[2] = xn = mol fraction of the nth substance listed; details: 100 kPa, Liquid; for viscosity: Falling or rolling sphere viscometry; for mass density: Vibrating tube method

| SMILES | viscosity ([1]; 293.15 K) [mPa·s] | mass density ([1]; 293.15 K) [kg/m3] | viscosity ([1]; 298.15 K) [mPa·s] | mass density ([1]; 298.15 K) [kg/m3] | viscosity ([1]; 303.15 K) [mPa·s] | mass density ([1]; 303.15 K) [kg/m3] | viscosity ([1]; 308.15 K) [mPa·s] | mass density ([1]; 308.15 K) [kg/m3] | viscosity ([1]; 313.15 K) [mPa·s] | mass density ([1]; 313.15 K) [kg/m3] | viscosity ([1]; 318.15 K) [mPa·s] | mass density ([1]; 318.15 K) [kg/m3] | viscosity ([1]; 323.15 K) [mPa·s] | mass density ([1]; 323.15 K) [kg/m3] | viscosity ([1]; 328.15 K) [mPa·s] | mass density ([1]; 328.15 K) [kg/m3] | viscosity ([1]; 333.15 K) [mPa·s] | mass density ([1]; 333.15 K) [kg/m3] | viscosity ([2]; 293.15 K, x2 = 0) [mPa·s] | mass density ([2]; 293.15 K, x2 = 0) [kg/m3] | also measured |
| --- | --- | --- | --- | --- | --- | --- | --- | --- | --- | --- | --- | --- | --- | --- | --- | --- | --- | --- | --- | --- | --- |
| CCCCCCCCCCCC [dodecane] | 1.491 ± 0.032 | 748.83 ± 0.76 | 1.366 ± 0.029 | 745.22 ± 0.76 | 1.257 ± 0.027 | 741.59 ± 0.75 | 1.154 ± 0.025 | 737.95 ± 0.75 | 1.076 ± 0.023 | 734.31 ± 0.75 | 1.003 ± 0.021 | 730.66 ± 0.74 | 0.936 ± 0.02 | 727 ± 0.74 | 0.877 ± 0.019 | 723.33 ± 0.74 | 0.823 ± 0.018 | 719.65 ± 0.73 |  |  |  |
| CCCCO [butan-1-ol] | 2.941 ± 0.063 | 809.5 ± 0.82 | 2.58 ± 0.055 | 805.7 ± 0.81 | 2.274 ± 0.048 | 801.87 ± 0.81 | 2.012 ± 0.043 | 798 ± 0.81 | 1.787 ± 0.038 | 794.1 ± 0.8 | 1.593 ± 0.034 | 790.15 ± 0.8 | 1.426 ± 0.03 | 786.16 ± 0.8 | 1.28 ± 0.027 | 782.12 ± 0.79 | 1.152 ± 0.025 | 778.01 ± 0.79 |  |  |  |
| CCCCO [butan-1-ol] + C1CCC(C2CCCCC2)CC1 |  |  |  |  |  |  |  |  |  |  |  |  |  |  |  |  |  |  | 2.941 ± 0.063 | 809.5 ± 0.82 | viscosity ([2]; 298.15 K, x2 = 0): 2.58 ± 0.055 mPa·s; mass density ([2]; 298.15 K, x2 = 0): 805.7 ± 0.81 kg/m3; viscosity ([2]; 303.15 K, x2 = 0): 2.274 ± 0.048 mPa·s; mass density ([2]; 303.15 K, x2 = 0): 801.87 ± 0.81 kg/m3; viscosity ([2]; 308.15 K, x2 = 0): 2.012 ± 0.043 mPa·s; mass density ([2]; 308.15 K, x2 = 0): 798 ± 0.81 kg/m3; viscosity ([2]; 313.15 K, x2 = 0): 1.787 ± 0.038 mPa·s; mass density ([2]; 313.15 K, x2 = 0): 794.1 ± 0.8 kg/m3; viscosity ([2]; 318.15 K, x2 = 0): 1.593 ± 0.034 mPa·s; mass density ([2]; 318.15 K, x2 = 0): 790.15 ± 0.8 kg/m3; viscosity ([2]; 323.15 K, x2 = 0): 1.426 ± 0.03 mPa·s; mass density ([2]; 323.15 K, x2 = 0): 786.16 ± 0.8 kg/m3; viscosity ([2]; 328.15 K, x2 = 0): 1.28 ± 0.027 mPa·s; mass density ([2]; 328.15 K, x2 = 0): 782.12 ± 0.79 kg/m3; viscosity ([2]; 333.15 K, x2 = 0): 1.152 ± 0.025 mPa·s; mass density ([2]; 333.15 K, x2 = 0): 778.01 ± 0.79 kg/m3 |
| CCCCCCCCCCCC [dodecane] + C1CCC(C2CCCCC2)CC1 |  |  |  |  |  |  |  |  |  |  |  |  |  |  |  |  |  |  |  |  | viscosity ([2]; 293.15 K, x1 = 1): 1.491 ± 0.032 mPa·s; mass density ([2]; 293.15 K, x1 = 1): 748.83 ± 0.76 kg/m3; viscosity ([2]; 298.15 K, x1 = 1): 1.366 ± 0.029 mPa·s; mass density ([2]; 298.15 K, x1 = 1): 745.22 ± 0.76 kg/m3; viscosity ([2]; 303.15 K, x1 = 1): 1.257 ± 0.027 mPa·s; mass density ([2]; 303.15 K, x1 = 1): 741.59 ± 0.75 kg/m3; viscosity ([2]; 308.15 K, x1 = 1): 1.154 ± 0.025 mPa·s; mass density ([2]; 308.15 K, x1 = 1): 737.95 ± 0.75 kg/m3; viscosity ([2]; 313.15 K, x1 = 1): 1.076 ± 0.023 mPa·s; mass density ([2]; 313.15 K, x1 = 1): 734.31 ± 0.75 kg/m3; viscosity ([2]; 318.15 K, x1 = 1): 1.003 ± 0.021 mPa·s; mass density ([2]; 318.15 K, x1 = 1): 730.66 ± 0.74 kg/m3; viscosity ([2]; 323.15 K, x1 = 1): 0.936 ± 0.02 mPa·s; mass density ([2]; 323.15 K, x1 = 1): 727 ± 0.74 kg/m3; viscosity ([2]; 328.15 K, x1 = 1): 0.877 ± 0.019 mPa·s; mass density ([2]; 328.15 K, x1 = 1): 723.33 ± 0.74 kg/m3; viscosity ([2]; 333.15 K, x1 = 1): 0.823 ± 0.018 mPa·s; mass density ([2]; 333.15 K, x1 = 1): 719.65 ± 0.73 kg/m3 |
| C1CCC(C2CCCCC2)CC1 [1,1'-bicyclohexyl] | 4.003 ± 0.085 | 886.05 ± 0.89 | 3.53 ± 0.075 | 882.44 ± 0.89 | 3.137 ± 0.067 | 878.84 ± 0.88 | 2.81 ± 0.06 | 875.25 ± 0.88 | 2.532 ± 0.054 | 871.66 ± 0.88 | 2.296 ± 0.049 | 868.08 ± 0.87 | 2.092 ± 0.045 | 864.5 ± 0.87 | 1.915 ± 0.041 | 860.93 ± 0.87 | 1.762 ± 0.038 | 857.35 ± 0.86 |  |  |  |
| CCCCO [butan-1-ol] + CCCCCCCCCCCC |  |  |  |  |  |  |  |  |  |  |  |  |  |  |  |  |  |  | 2.941 ± 0.063 | 809.5 ± 0.82 | viscosity ([2]; 298.15 K, x2 = 0): 2.58 ± 0.055 mPa·s; mass density ([2]; 298.15 K, x2 = 0): 805.7 ± 0.81 kg/m3; viscosity ([2]; 303.15 K, x2 = 0): 2.274 ± 0.048 mPa·s; mass density ([2]; 303.15 K, x2 = 0): 801.87 ± 0.81 kg/m3; viscosity ([2]; 308.15 K, x2 = 0): 2.012 ± 0.043 mPa·s; mass density ([2]; 308.15 K, x2 = 0): 798 ± 0.81 kg/m3; viscosity ([2]; 313.15 K, x2 = 0): 1.787 ± 0.038 mPa·s; mass density ([2]; 313.15 K, x2 = 0): 794.1 ± 0.8 kg/m3; viscosity ([2]; 318.15 K, x2 = 0): 1.593 ± 0.034 mPa·s; mass density ([2]; 318.15 K, x2 = 0): 790.15 ± 0.8 kg/m3; viscosity ([2]; 323.15 K, x2 = 0): 1.426 ± 0.03 mPa·s; mass density ([2]; 323.15 K, x2 = 0): 786.16 ± 0.8 kg/m3; viscosity ([2]; 328.15 K, x2 = 0): 1.28 ± 0.027 mPa·s; mass density ([2]; 328.15 K, x2 = 0): 782.12 ± 0.79 kg/m3; viscosity ([2]; 333.15 K, x2 = 0): 1.152 ± 0.025 mPa·s; mass density ([2]; 333.15 K, x2 = 0): 778.01 ± 0.79 kg/m3 |
